Results from US20120094964A1, “SULFAMOYL BENZOIC ACID DERIVATIVES AS TRPM8 ANTAGONISTS” (priority 2009, published 2012).

Each molecule was assayed against T1, human TRPM8 (Homo sapiens, UniProt Q7Z2W7) (assay: In Vitro human TRPM8 Functional Assay (intracellular Ca2+, Fluo4, FDSS, menthol activation)). Settings: HEK293 cells stably expressing human TRPM8; activation with L-(-)-Menthol; 11-point dose-response.
T1 construct: expressed in transfected cells
Type: cell-based
Description: In Vitro human TRPM8 Functional Assay
The functional activity of compounds was determined by measuring changes in intracellular calcium concentration using a Ca^2+-sensitive fluorescent dye, Fluo4 (Molecular Probes). The changes in fluorescent signal were monitored by the cell imaging technology by Hamamatsu Photonics's Functional Drug Screening System (FDSS).
HEK293 cells stably expressing human TRPM8 were grown in T175 flasks, in a 5% CO2 humidified incubator to about 80% confluence. Media composition consisted of Dulbecco's Modified Eagle Medium (high glucose), 10% fetal calf serum (FCS), 100 units/ml Penicillin, 100 microg/ml Streptomycin and 600 microg/ml Geneticine.
1. Plate-out HEK293-TRPM8 cells (40 microL medium containing 30,000 cells per well) into poly-D-lysine coated 384-well plates (BD FALCON) at 24 hours prior to assay.
1. […] 2. […] 3. Place the plate at room temperature in dark for 1 hour. 4. […] 5. Add 20 microL of compound solutions into each well and leave the plate for 5 minutes under the dark at room temperature. 6. Measure activity by FDSS as follows: • Set the assay plate on the stacker of FDSS • Start the detection of fluorescence intensity • After 30 sec, add 20 microL of 90 microM L-(−)-Menthol
IC50 values for compounds of the present invention were determined from 11-point dose-response studies. Curves were generated using the average of duplicate wells for each data point. Finally, the IC50 values are calculated with the best-fit dose curve determined by XLfit (ID Business Solutions Ltd.).

T1 sequence (Q7Z2W7 whole entry): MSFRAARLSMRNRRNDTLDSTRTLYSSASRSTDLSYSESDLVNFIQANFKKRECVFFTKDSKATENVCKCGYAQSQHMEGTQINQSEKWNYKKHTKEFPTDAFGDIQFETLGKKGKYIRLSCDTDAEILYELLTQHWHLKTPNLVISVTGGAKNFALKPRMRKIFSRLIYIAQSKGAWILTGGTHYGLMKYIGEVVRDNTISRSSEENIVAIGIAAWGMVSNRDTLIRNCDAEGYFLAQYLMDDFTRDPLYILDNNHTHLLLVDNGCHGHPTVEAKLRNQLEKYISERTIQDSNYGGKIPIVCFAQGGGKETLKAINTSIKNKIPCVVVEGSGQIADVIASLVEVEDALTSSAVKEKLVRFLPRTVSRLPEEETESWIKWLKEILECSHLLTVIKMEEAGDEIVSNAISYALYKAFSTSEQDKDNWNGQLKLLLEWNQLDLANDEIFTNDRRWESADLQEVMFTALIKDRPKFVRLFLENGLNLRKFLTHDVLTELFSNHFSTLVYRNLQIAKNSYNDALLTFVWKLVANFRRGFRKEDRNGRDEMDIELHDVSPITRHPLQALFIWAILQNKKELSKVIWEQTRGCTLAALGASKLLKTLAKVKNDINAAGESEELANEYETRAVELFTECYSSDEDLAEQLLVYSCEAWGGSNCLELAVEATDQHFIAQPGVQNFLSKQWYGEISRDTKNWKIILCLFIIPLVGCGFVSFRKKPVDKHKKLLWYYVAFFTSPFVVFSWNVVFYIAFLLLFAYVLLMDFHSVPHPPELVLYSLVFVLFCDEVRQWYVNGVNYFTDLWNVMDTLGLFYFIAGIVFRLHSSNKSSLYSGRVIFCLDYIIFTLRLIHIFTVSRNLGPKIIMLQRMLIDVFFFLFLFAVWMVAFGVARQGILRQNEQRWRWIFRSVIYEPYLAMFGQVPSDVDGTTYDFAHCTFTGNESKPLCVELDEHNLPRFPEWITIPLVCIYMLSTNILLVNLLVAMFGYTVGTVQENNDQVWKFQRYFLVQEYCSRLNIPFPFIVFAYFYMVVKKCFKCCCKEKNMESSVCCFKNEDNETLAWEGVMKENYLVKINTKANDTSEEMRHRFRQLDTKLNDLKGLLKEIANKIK

IC50	SMILES
< 1000 nM	O=C(O)c1ccc(S(=O)(=O)N(CCOc2ccc(F)cc2)c2ncc(C(F)(F)F)cc2Cl)cc1 [Example 30, 4-(N-(3-Chloro-5-(trifluoromethyl)pyridin-2-yl)-N-(2-(4-fluorophenoxy)ethyl)sulfamoyl)benzoic acid]
< 1000 nM	C[C@@H](c1ccccc1)N(c1ncc(C(F)(F)F)cc1Cl)S(=O)(=O)c1ccc(C(=O)O)cc1 [Example 197, (S)-4-(N-(3-Chloro-5-(trifluoromethyl)pyridin-2-yl)-N-(1-phenylethyl)sulfamoyl)benzoic acid]
1000 to 10000 nM	O=S(=O)(c1ccc(F)cc1)N(Cc1ccccc1)c1ccccn1 [Example 108, N-Benzyl-4-fluoro-N-(pyridin-2-yl)benezene-sulfonamide]
< 1000 nM	C[C@H](c1ccccc1)N(c1ncc(C(F)(F)F)cc1Cl)S(=O)(=O)c1ccc(C(=O)O)cc1 [Example 166, (R)-4-(N-(3-Chloro-5-(trifluoromethyl)pyridin-2-yl)-N-(1-phenylethyl)sulfamoyl)benzoic acid]
10000 to 30000 nM	COc1ccc(C(C)N(c2ccc(OC)cc2)S(=O)(=O)c2ccc(C)c(Cl)c2)cc1 (stereo not drawn) [Example 137, 3-Chloro-N-(4-methoxyphenyl)-N-(1-(4-methoxy-phenyl)ethyl)-4-methyl benzenesulfonamide]
< 1000 nM	O=C(O)Cc1ccc(S(=O)(=O)N(Cc2ccccc2)c2ncc(C(F)(F)F)cc2Cl)cc1 [Example 147, 2-(4-(N-Benzyl-N-(3-chloro-5-(trifluoromethyl)pyridin-2-yl)sulfamoyl)phenyl)acetic acid]
< 1000 nM	O=C(O)c1ccc(S(=O)(=O)N(Cc2ccc(Oc3ccccc3)cc2)c2ncc(C(F)(F)F)cc2Cl)cc1 [Example 169, 4-(N-(3-Chloro-5-(trifluoromethyl)pyridin-2-yl)-N-(4-phenoxybenzyl)sulfamoyl)benzoic acid]
< 1000 nM	CC1(c2ccc(CN(c3ncc(Cl)cc3Cl)S(=O)(=O)c3ccc(C(=O)O)cc3)cc2)CC1 [Example 70, 4-(N-(3,5-Dichloropyridin-2-yl)-N-(4-(1-methylcyclopropyl)benzyl)sulfamoyl)benzoic acid]
1000 to 10000 nM	O=C(O)c1ccc(S(=O)(=O)N(CCN2CCCCC2)c2ccc(C(F)(F)F)cc2Cl)cc1 [Example 83, 4-(N-(2-Chloro-4-(trifluoromethyl)phenyl)-N-(2-(piperidin-1-yl)ethyl)sulfamoyl)benzoic acid]
10000 to 30000 nM	COc1ccc(N(C(C)c2ccccc2OC)S(=O)(=O)c2ccc(C)c(Cl)c2)cc1 (stereo not drawn) [Example 104, 3-Chloro-N-(4-methoxyphenyl)-N-(1-(2-methoxy-phenyl)ethyl)-4-methyl benzenesulfonamide]
1000 to 10000 nM	COc1ccccc1C(C)N(c1cccc(F)c1)S(=O)(=O)c1ccc(C)c(Cl)c1 (stereo not drawn) [Example 105, 3-Chloro-N-(3-fluorophenyl)-N-(1-(2-methoxyphenyl)ethyl)-4-methylbenzene-sulfonamide]
1000 to 10000 nM	Cc1cccc(N(C(C)c2ccccc2F)S(=O)(=O)c2ccccc2F)c1 (stereo not drawn) [Example 91, 2-Fluoro-N-(1-(2-fluoro-phenyl)ethyl)-N-m-tolyl benzenesulfonamide]
10000 to 30000 nM	COc1ccccc1N(Cc1ccccc1)S(=O)(=O)c1cccc(C(=O)O)c1 [Example 114, 3-(N-Benzyl-N-(2-methoxyphenyl)sulfamoyl) benzoic acid]
1000 to 10000 nM	Cc1ccc(S(=O)(=O)N(Cc2ccccc2)c2ccccn2)cc1[N+](=O)[O-] [Example 133, N-Benzyl-4-methyl-3-nitro-N-(pyridin-2-yl) benzenesulfonamide]
< 1000 nM	COc1cccc(CN(c2ncc(C(F)(F)F)cc2Cl)S(=O)(=O)c2ccc(C(=O)O)cc2)c1 [Example 24, 4-(N-(3-Chloro-5-(trifluoromethyl)pyridin-2-yl)-N-(3-methoxybenzyl)sulfamoyl)benzoic acid]
1000 to 10000 nM	O=C(O)c1cccc(S(=O)(=O)N(Cc2ccccc2)c2cccc(C(F)(F)F)c2)c1 [Example 111, 3-(N-Benzyl-N-(3-(trifluoromethyl)phenyl)sulfamoyl)benzoic acid]
< 1000 nM	CC(=O)NCc1ccc(S(=O)(=O)N(Cc2ccccc2)c2ncc(C(F)(F)F)cc2Cl)cc1 [Example 177, N-(4-(N-Benzyl-N-(3-chloro-5-(trifluoromethyl)pyridin-2-yl)sulfamoyl)benzyl)acetamide]
< 1000 nM	O=C(O)c1ccc(S(=O)(=O)N(Cc2ccccc2)c2ncc(C(F)(F)F)cc2C2CC2)cc1 [Example 149, 4-(N-Benzyl-N-(3-cyclopropyl-5-(trifluoromethyl)pyridin-2-yl)sulfamoyl)benzoic acid]

IC50	SMILES
1000 to 10000 nM	COc1ccc(OC)c(C(C)N(c2cccc(F)c2)S(=O)(=O)c2cc(F)ccc2C)c1 (stereo not drawn) [Example 136, N-(1-(2,5-Dimethoxyphenyl)ethyl)-5-fluoro-N-(3-fluorophenyl)-2-methyl-benzenesulfonamide]
< 1000 nM	O=C(O)c1ccc(S(=O)(=O)N(Cc2ccc(F)c(F)c2)c2ncc(C(F)(F)F)cc2Cl)cc1 [Example 45, 4-(N-(3-Chloro-5-(trifluoromethyl)pyridin-2-yl)-N-(3,4-difluorobenzyl)sulfamoyl)benzoic acid]
< 1000 nM	O=C(O)c1ccc(S(=O)(=O)N(Cc2ccc(C(F)(F)F)nc2)c2ncc(C(F)(F)F)cc2Cl)cc1 [Example 160, 4-(N-(3-Chloro-5-(trifluoromethyl)pyridin-2-yl)-N-((6-(trifluoromethyl)pyridin-3-yl)methyl)sulfamoyl)benzoic acid]
1000 to 10000 nM	Cc1cc(C)c(S(=O)(=O)N(Cc2ccccc2)c2ccccn2)c(C)c1 [Example 127, N-Benzyl-2,4,6-trimethyl-N-(pyridin-2-yl)benzene-sulfonamide]
1000 to 10000 nM	COc1ccc(S(=O)(=O)N(Cc2ccccc2)c2ccccn2)cc1 [Example 132, N-Benzyl-4-methoxy-N-(pyridin-2-yl)benzene-sulfonamide]
1000 to 10000 nM	O=C(O)c1cccc(S(=O)(=O)N(Cc2ccccc2)c2ccc(Cl)cc2)c1 [Example 115, 3-(N-Benzyl-N-(4-chlorophenyl)sulfamoyl) benzoic acid]
< 1000 nM	COc1ccc(-c2cnc(N(Cc3ccccc3)S(=O)(=O)c3ccc(C(=O)O)cc3)c(Cl)c2)cc1 [Example 186, 4-(N-Benzyl-N-(3-chloro-5-(4-methoxyphenyl)pyridin-2-yl)sulfamoyl)benzoic acid]
1000 to 10000 nM	COc1cccc(N(C(C)c2ccccc2)S(=O)(=O)c2ccc(F)c(Cl)c2)c1 (stereo not drawn) [Example 94, 3-Chloro-4-fluoro-N-(3-methoxyphenyl)-N-(1-phenylethyl)benzene-sulfonamide]
< 1000 nM	O=C(O)c1ccc(S(=O)(=O)N(Cc2ccccc2-c2ccccc2)c2ncc(C(F)(F)F)cc2Cl)cc1 [Example 165, 4-(N-([1,1′-Biphenyl]-2-ylmethyl)-N-(3-chloro-5-(trifluoromethyl)pyridin-2-yl)sulfamoyl)benzoic acid]
1000 to 10000 nM	COc1cccc(C(C)N(c2ccccc2)S(=O)(=O)c2ccc(C)c(F)c2)c1 (stereo not drawn) [Example 101, 3-Fluoro-N-(1-(3-methoxyphenyl)ethyl)-4-methyl-N-phenylbenzene-sulfonamide]
1000 to 10000 nM	COc1ccc(N(C(C)c2ccc(C)cc2)S(=O)(=O)c2cc(Cl)ccc2F)cc1 (stereo not drawn) [Example 134, 5-Chloro-2-fluoro-N-(4-methoxyphenyl)-N-(1-p-tolylethyl)benezene-sulfonamide]
< 1000 nM	Cc1cc(C(=O)O)ccc1S(=O)(=O)N(Cc1ccccc1)c1ncc(C(F)(F)F)cc1Cl [Example 145, 4-(N-Benzyl-N-(3-chloro-5-(trifluoromethyl)pyridin-2-yl)sulfamoyl)-3-methylbenzoic acid]
< 1000 nM	O=C(O)c1ccc(S(=O)(=O)N(Cc2ccc(C3CC3)cc2)c2ncc(C(F)(F)F)cc2Cl)cc1 [Example 150, 4-(N-(3-Chloro-5-(trifluoromethyl)pyridin-2-yl)-N-(4-cyclopropylbenzyl)sulfamoyl)benzoic acid]
< 1000 nM	O=C(O)c1ccc(S(=O)(=O)N(Cc2ccccc2)c2ncc(-c3ccco3)cc2Cl)cc1 [Example 183, 4-(N-Benzyl-N-(3-chloro-5-(furan-2-yl)pyridin-2-yl)sulfamoyl)benzoic acid]
< 1000 nM	Cc1ccc(CN(c2ncc(Cl)cc2Cl)S(=O)(=O)c2ccc(C(=O)O)cc2)cc1C(F)(F)F [Example 68, 4-(N-(3,5-dichloropyridin-2-yl)-N-(4-methyl-3-(trifluoromethyl)benzyl)sulfamoyl)benzoic acid]
< 1000 nM	Cc1cc(Cl)cnc1N(Cc1ccc(Cl)c(C(F)(F)F)c1)S(=O)(=O)c1ccc(C(=O)O)cc1 [Example 79, 4-(N-(4-Chloro-3-(trifluoromethyl)benzyl)-N-(5-chloro-3-methylpyridin-2-yl)sulfamoyl)benzoic acid]
< 1000 nM	Cc1ccc(CN(c2ncc(Cl)cc2Cl)S(=O)(=O)c2ccc(C(=O)O)cc2)cc1F [Example 67, 4-(N-(3,5-Dichloropyridin-2-yl)-N-(3-fluoro-4-methylbenzyl)sulfamoyl)benzoic acid]
1000 to 10000 nM	O=S(=O)(c1cccc2cccnc12)N(Cc1ccccc1)c1ccccn1 [Example 128, N-Benzyl-N-(pyridin-2-yl) quinoline-8-sulfonamide]
